System: HL-60
Experiment: Cytotoxicity against human HL60 cells
Type: functional, cell-based

| Structure (SMILES) | IC50 |
| --- | --- |
| COC(=O)[C@]12CC(=O)[C@H](C(C)C)CC(=O)/C(C)=C/CC/C(C)=C\C(=O)[C@H]1CC(C)=C1C[C@H](O)[C@](C)(O)[C@H]3CC[C@@](C)(O3)[C@@H](O)CC/C(C)=C/[C@@H]12 [BISGLAUCUMLIDE H] | 47.8 µM |
| COC(=O)[C@]12CC(=O)/C=C(/C)CC/C=C(\C)C(=O)C[C@@H](C(C)C)C(=O)[C@H]1CC(C)=C1C[C@H](O)[C@](C)(O)[C@H]3CC[C@@](C)(O)[C@H](CC/C(C)=C/[C@@H]12)O3 [BISGLAUCUMLIDE I] | 44.1 µM |
| COC(=O)[C@]12CC(=O)[C@H](C(C)C)CC(=O)/C(C)=C/CC/C(C)=C\C(=O)[C@H]1CC(C)=C1C[C@H](O)[C@](C)(O)[C@H]3CC[C@@](C)(O)[C@H](CC/C(C)=C/[C@@H]12)O3 [BISGLAUCUMLIDE E] | 41 µM |
| COC(=O)[C@]12CC(=O)/C=C(\C)CC/C=C(\C)C(=O)C[C@@H](C(C)C)C(=O)[C@H]1CC(C)=C1C[C@H](OC(C)=O)[C@](C)(O)[C@H]3CC[C@@](C)(O)[C@H](CC/C(C)=C/[C@@H]12)O3 [BISGLAUCUMLIDE K] | 29.8 µM |
| COC(=O)[C@]12CC(=O)[C@H](C(C)C)CC(=O)/C(C)=C\CC/C(C)=C/C(=O)[C@H]1CC(C)=C1C[C@H](OC(C)=O)[C@](C)(O)[C@H]3CC[C@@](C)(O)[C@H](CC/C(C)=C/[C@@H]12)O3 [BISGLAUCUMLIDE F] | 13.3 µM |
| COC(=O)[C@]12CC(=O)[C@H](C(C)C)CC(=O)/C(C)=C/CC/C(C)=C/C(=O)[C@H]1CC(C)=C1C[C@H](O)[C@](C)(O)[C@H]3CC[C@](C)(O3)[C@@H](O)CC/C(C)=C/[C@@H]12 [BISGLAUCUMLIDE G] | 58 µM |

Reference: ChEMBL document CHEMBL1151967, “Cytotoxic biscembranes from the soft coral Sarcophyton glaucum” (J Nat Prod, 2009)
